In ChEMBL document CHEMBL5291721, “A preclinical secondary pharmacology resource illuminates target-adverse drug reaction associations of marketed drugs” (Nat Commun, 2023):

Columns and labels:
[1] = target: Voltage-dependent L-type calcium channel subunit alpha-1C (Homo sapiens, UniProt Q13936); assay type: functional, cell-based
D(1A) dopamine receptor [2] = target: T1, D(1A) dopamine receptor (Homo sapiens, UniProt P21728); assay type: functional, cell-based
[3] = target: T2, Muscarinic acetylcholine receptor M1 (Homo sapiens, UniProt P11229); assay type: functional, cell-based
T2 sequence (P11229 whole entry): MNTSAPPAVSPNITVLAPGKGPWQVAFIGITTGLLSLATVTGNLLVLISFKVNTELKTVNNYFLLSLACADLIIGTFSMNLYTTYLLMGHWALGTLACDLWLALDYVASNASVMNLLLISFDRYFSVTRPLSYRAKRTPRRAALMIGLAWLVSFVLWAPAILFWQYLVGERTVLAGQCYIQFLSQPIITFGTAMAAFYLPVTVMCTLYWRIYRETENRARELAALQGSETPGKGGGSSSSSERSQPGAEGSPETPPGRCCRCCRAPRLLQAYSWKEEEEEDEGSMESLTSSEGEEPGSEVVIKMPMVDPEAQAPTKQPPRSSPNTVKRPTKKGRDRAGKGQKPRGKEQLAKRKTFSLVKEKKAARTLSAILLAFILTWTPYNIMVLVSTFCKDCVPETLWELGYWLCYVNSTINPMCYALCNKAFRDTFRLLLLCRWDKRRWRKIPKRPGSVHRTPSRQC

[4] = target: T2, Muscarinic acetylcholine receptor M1; assay type: functional, cell-based; remark: listed apart in the source
[5] = target: T3, Alpha-1A adrenergic receptor (Homo sapiens, UniProt P35348)
T3 sequence (P35348 whole entry): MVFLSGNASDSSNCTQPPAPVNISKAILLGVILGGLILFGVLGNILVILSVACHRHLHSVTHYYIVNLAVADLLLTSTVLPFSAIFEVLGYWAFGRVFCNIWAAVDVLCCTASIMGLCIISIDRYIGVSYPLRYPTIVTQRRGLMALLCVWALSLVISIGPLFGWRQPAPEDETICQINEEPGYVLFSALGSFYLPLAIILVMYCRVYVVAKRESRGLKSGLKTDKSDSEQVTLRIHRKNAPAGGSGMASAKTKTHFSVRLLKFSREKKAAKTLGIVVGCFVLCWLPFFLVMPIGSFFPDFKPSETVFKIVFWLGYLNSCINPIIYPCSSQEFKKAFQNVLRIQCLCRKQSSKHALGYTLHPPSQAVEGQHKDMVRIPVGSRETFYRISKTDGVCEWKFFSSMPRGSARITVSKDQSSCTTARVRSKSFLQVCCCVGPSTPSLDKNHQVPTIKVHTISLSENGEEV

[6] = target: T4, Muscarinic acetylcholine receptor M2 (Homo sapiens, UniProt P08172)
T4 sequence (P08172 whole entry): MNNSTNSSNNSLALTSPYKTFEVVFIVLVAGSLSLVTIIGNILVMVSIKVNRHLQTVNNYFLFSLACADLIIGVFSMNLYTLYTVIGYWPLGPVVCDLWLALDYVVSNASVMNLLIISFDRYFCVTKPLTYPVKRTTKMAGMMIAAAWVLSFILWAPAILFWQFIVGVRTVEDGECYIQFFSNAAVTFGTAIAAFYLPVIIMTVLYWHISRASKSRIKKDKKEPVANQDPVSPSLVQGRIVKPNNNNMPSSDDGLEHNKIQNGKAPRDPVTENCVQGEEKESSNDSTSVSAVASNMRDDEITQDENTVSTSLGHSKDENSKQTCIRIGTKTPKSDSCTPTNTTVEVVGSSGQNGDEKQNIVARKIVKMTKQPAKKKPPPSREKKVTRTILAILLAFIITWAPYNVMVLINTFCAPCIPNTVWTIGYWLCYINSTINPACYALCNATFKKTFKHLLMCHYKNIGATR

D(1A) dopamine receptor [7] = target: T1, D(1A) dopamine receptor
D(1A) dopamine receptor [8] = target: T1, D(1A) dopamine receptor; remark: listed apart in the source
D(3) dopamine receptor = D(3) dopamine receptor (Homo sapiens, UniProt P35462)
Estrogen receptor = target: T5, Estrogen receptor (Homo sapiens, UniProt P03372)
T5 sequence (P03372 whole entry): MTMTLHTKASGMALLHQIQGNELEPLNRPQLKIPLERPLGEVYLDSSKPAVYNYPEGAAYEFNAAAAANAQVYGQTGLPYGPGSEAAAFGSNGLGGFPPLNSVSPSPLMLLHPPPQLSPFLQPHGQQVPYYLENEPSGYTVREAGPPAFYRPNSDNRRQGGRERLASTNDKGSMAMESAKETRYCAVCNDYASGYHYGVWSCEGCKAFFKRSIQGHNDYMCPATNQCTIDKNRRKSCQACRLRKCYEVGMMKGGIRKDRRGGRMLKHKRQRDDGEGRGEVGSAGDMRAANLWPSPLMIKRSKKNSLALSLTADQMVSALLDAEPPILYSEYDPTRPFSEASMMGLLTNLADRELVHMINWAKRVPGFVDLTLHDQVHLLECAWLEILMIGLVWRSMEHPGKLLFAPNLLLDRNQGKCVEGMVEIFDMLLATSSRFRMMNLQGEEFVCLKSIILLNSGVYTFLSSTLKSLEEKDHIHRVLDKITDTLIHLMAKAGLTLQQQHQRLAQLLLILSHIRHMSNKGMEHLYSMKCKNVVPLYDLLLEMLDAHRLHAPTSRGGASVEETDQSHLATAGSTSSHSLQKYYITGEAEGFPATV

[9] = target: 5-hydroxytryptamine receptor 2B (Homo sapiens, UniProt P41595); assay type: functional, cell-based
Mu-type opioid receptor = Mu-type opioid receptor (Homo sapiens, UniProt P35372)
[10] = target: T6, Prostaglandin G/H synthase 1 (Homo sapiens, UniProt P23219); assay type: functional
[11] = target: T6, Prostaglandin G/H synthase 1; assay type: functional; remark: listed apart in the source
[12] = target: Sodium-dependent noradrenaline transporter (Homo sapiens, UniProt P23975)
[13] = target: Sodium-dependent dopamine transporter (Homo sapiens, UniProt Q01959)
Further: assay procedure not described here.

T6 sequence (P23219 whole entry): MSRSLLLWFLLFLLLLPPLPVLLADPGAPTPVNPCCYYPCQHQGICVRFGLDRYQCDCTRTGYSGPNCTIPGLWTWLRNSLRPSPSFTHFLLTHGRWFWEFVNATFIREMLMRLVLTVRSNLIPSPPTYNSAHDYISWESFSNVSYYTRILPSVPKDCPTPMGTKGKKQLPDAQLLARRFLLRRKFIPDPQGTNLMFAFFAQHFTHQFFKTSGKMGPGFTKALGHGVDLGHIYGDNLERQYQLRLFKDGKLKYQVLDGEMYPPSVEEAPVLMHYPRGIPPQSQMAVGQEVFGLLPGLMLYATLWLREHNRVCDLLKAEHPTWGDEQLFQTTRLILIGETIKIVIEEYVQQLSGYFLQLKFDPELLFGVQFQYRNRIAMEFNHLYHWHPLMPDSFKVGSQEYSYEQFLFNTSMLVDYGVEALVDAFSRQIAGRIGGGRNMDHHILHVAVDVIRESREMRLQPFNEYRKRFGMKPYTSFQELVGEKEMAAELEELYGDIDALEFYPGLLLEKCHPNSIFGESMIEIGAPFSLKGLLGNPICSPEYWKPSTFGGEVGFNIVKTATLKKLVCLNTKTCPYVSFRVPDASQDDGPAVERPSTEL
T1 sequence (P21728 whole entry): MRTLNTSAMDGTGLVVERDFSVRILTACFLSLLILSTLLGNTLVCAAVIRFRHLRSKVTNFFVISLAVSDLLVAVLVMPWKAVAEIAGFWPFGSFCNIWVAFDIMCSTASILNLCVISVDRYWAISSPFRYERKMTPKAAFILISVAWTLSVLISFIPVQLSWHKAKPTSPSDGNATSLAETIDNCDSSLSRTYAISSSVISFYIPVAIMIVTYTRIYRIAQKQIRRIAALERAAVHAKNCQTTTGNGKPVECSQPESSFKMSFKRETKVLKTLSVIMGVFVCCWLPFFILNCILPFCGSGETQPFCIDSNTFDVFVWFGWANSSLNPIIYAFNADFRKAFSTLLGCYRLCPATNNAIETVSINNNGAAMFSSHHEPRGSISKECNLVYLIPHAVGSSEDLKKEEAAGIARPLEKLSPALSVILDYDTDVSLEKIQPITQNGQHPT
5-hydroxytryptamine receptor 2B, sequence (P41595 whole entry): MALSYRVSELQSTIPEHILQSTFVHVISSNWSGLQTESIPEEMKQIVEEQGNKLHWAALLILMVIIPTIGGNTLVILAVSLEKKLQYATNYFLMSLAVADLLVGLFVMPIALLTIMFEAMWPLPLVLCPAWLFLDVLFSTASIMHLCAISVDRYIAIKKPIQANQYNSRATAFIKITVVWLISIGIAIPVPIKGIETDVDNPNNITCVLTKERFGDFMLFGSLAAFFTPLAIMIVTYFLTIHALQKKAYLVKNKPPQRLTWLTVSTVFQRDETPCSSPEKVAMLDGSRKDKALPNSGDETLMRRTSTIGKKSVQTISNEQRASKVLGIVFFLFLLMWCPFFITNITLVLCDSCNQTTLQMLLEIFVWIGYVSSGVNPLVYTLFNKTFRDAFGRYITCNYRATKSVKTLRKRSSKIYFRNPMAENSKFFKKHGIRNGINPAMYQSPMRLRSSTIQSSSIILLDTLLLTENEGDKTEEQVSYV
Mu-type opioid receptor, sequence (P35372 whole entry): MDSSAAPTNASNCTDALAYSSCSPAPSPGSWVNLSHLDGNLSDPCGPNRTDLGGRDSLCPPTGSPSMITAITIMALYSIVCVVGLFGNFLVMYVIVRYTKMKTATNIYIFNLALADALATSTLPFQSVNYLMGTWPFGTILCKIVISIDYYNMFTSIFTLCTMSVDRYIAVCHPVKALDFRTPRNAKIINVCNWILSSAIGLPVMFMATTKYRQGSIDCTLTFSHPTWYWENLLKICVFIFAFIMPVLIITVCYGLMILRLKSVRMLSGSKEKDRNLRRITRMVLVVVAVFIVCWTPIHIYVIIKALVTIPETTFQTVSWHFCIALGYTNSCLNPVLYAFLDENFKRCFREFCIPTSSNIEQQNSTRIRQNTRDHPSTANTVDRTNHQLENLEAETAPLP
Voltage-dependent L-type calcium channel subunit alpha-1C, sequence (Q13936 whole entry): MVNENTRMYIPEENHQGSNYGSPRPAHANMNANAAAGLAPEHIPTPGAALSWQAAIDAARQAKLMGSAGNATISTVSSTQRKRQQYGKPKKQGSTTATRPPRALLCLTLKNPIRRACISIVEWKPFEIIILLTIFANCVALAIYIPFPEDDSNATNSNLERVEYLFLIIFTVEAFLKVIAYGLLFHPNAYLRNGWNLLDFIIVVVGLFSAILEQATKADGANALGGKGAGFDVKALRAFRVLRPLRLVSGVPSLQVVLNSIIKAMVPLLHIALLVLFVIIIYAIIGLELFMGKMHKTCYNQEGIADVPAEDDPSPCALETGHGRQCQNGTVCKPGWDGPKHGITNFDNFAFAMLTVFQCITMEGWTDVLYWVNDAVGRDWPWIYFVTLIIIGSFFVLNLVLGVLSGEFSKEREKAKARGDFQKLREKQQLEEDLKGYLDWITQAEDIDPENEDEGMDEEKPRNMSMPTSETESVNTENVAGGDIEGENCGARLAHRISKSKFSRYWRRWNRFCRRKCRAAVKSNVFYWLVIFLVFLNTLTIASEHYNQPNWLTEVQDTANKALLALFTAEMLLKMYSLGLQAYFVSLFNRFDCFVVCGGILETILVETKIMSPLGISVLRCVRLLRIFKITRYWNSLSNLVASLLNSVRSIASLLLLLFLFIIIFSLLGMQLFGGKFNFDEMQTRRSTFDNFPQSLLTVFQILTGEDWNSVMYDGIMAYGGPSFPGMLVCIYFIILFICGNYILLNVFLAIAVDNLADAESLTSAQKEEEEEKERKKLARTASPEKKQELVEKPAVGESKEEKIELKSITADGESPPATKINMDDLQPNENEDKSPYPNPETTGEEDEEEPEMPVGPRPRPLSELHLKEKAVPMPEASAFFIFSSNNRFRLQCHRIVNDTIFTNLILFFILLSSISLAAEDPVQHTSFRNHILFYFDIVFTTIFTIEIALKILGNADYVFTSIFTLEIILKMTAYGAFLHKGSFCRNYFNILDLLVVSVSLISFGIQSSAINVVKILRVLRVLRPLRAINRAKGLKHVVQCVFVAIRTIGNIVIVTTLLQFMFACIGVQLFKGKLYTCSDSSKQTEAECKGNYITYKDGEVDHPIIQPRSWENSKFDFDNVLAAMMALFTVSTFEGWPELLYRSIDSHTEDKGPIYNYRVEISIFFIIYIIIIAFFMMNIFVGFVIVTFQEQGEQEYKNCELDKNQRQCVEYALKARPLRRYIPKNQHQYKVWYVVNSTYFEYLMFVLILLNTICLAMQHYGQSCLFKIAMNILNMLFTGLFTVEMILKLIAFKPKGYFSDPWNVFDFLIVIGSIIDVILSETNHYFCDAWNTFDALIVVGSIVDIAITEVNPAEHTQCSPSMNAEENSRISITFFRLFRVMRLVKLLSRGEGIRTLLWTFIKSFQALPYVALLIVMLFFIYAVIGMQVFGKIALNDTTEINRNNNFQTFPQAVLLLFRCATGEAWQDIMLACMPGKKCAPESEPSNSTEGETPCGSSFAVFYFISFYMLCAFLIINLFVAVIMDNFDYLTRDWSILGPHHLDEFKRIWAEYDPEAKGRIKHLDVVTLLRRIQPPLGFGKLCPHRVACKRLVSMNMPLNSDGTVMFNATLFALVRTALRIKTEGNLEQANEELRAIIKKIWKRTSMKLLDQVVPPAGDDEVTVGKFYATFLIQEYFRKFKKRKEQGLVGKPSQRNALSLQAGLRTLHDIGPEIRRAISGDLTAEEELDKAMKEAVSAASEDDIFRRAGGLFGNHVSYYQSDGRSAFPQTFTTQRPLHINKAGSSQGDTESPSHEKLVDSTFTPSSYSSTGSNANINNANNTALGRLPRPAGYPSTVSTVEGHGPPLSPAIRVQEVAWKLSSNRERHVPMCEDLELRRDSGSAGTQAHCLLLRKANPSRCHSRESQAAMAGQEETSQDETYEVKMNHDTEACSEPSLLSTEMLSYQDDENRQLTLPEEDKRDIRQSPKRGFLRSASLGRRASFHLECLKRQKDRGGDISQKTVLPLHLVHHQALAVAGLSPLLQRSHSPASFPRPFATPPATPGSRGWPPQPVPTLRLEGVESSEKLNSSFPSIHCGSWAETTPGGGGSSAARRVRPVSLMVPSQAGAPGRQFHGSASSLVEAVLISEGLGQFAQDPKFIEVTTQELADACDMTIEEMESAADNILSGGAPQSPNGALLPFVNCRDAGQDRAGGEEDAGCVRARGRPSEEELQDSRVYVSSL
Sodium-dependent dopamine transporter, sequence (Q01959 whole entry): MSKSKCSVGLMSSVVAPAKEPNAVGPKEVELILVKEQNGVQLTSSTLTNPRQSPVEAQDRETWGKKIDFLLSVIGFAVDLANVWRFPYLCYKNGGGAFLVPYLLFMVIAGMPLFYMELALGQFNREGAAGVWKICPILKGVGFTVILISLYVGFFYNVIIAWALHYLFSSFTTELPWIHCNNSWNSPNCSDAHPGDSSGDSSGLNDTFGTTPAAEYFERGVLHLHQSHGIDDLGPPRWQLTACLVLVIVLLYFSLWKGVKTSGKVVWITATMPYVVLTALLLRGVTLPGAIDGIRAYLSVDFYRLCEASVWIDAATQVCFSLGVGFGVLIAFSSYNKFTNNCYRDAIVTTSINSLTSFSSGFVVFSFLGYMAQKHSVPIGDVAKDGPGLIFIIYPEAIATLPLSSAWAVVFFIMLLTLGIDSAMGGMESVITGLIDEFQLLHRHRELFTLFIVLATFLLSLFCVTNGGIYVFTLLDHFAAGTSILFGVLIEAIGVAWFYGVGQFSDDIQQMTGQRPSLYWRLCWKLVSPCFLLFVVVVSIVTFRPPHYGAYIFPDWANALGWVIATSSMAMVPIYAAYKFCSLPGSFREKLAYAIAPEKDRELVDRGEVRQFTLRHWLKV

## N#Cc1ccccc1-c1cc(-c2ccccn2)cn(-c2ccccc2)c1=O
[1]
  AC50: > 30 µM

## O=C(CCCN1CCC(n2c(O)nc3ccccc32)CC1)c1ccc(F)cc1 [BENPERIDOL]
D(1A) dopamine receptor [2]
  AC50: 7.5 µM

## CCN(CC)C(=O)C1CN2CCc3cc(OC)c(OC)cc3C2CC1OC(C)=O (configuration not stated) [BENZQUINAMIDE]
[3]
  AC50: > 30 µM
[4]
  AC50: > 30000 nM

## CC(C)(C)NCC(O)c1cc(Cl)c(N)c(Cl)c1 (configuration not stated) [CLENBUTEROL]
D(1A) dopamine receptor [2]
  AC50: > 30 µM

## COC(=O)N[C@@H](C)CNc1nccc(-c2cn(C(C)C)nc2-c2cc(Cl)cc(NS(C)(=O)=O)c2F)n1 [ENCORAFENIB]
[1]
  AC50: > 30 µM

## C[n+]1ccccc1/C=N/O [PRALIDOXIME]
[5]
  AC50: > 30 µM
[6]
  AC50: > 30 µM
D(1A) dopamine receptor [7]
  AC50: > 30 µM
D(1A) dopamine receptor [8]
  AC50: > 30 µM
D(3) dopamine receptor
  AC50: > 30 µM
Estrogen receptor
  AC50: > 30 µM
[9]
  AC50: > 30 µM
Mu-type opioid receptor
  AC50: > 30 µM
[10]
  AC50: > 30 µM
[11]
  AC50: > 30 µM
[12]
  AC50: > 30 µM
[13]
  AC50: > 30 µM

## CCCOC(C(=O)OC1CCN(C)CC1)(c1ccccc1)c1ccccc1 [PROPIVERINE]
[3]
  AC50: > 30 µM
[4]
  AC50: 590 nM

## COLISTIN
[5]
  AC50: > 30 µM
[6]
  AC50: > 30 µM
D(1A) dopamine receptor [7]
  AC50: > 30 µM
D(1A) dopamine receptor [8]
  AC50: > 30 µM
D(3) dopamine receptor
  AC50: > 30 µM
Estrogen receptor
  AC50: > 30 µM
[9]
  AC50: > 30 µM
Mu-type opioid receptor
  AC50: > 30 µM
[10]
  AC50: > 30 µM
[11]
  AC50: 11.2 µM
[12]
  AC50: > 30 µM
[13]
  AC50: 26.6 µM
